From publication PMC6222422, “Synthesis and Biological Evaluation of Novel Indole-Derived Thioureas” (Molecules : A Journal of Synthetic Chemistry and Natural …, 2018)
Values after ≈ are worked out from the molar mass of the structure shown. Like-named read-outs stand apart in the source and are kept apart here.

Legend:
BVDV = test: microbe, parasite or virus in culture; type: cell-based, bovine viral diarrhoea virus; settings: Bovine viral diarrhea virus isolates and strains, MDBK, in Bos taurus, read-out: BVDV EC50
in vitro [1] = settings: Syrian hamster (Mesocricetus auratus)
Reo-1 = test: microbe, parasite or virus in culture; type: cell-based, reovirus type-1; settings: Reovirus sp., BHK, read-out: Reo-1 EC50
RSV = test: microbe, parasite or virus in culture; type: cell-based, human respiratory syncytial virus; settings: for EC50: human respiratory syncytial virus, Vero 76, read-out: RSV EC50
S. aureus NCTC 4163 [2] = test: disc diffusion method; type: cell-based, Staphylococcus aureus; settings: Staphylococcus aureus, NCTC4163, applied 400 µg per disc, dash = lack of the growth inhibition area, read-out: diameter of growth inhibitory zone (GIZ)
S. aureus ATCC 6538 [3] = test: MIC, twofold serial agar dilution; type: cell-based; settings: Staphylococcus aureus, ATCC6538, 18 h, 35 °C, read-out: minimal inhibitory concentrations (MIC)
S. aureus ATCC 25923 [4] = test: MIC, twofold serial agar dilution; type: cell-based; settings: Staphylococcus aureus, ATCC25923, 18 h, 35 °C, read-out: minimal inhibitory concentrations (MIC)
S. aureus ATCC 29213 [5] = test: MIC, twofold serial agar dilution; type: cell-based; settings: Staphylococcus aureus, ATCC29213, 18 h, 35 °C, read-out: minimal inhibitory concentrations (MIC)
HSV-1 = test: microbe, parasite or virus in culture; type: cell-based, human herpes 1; settings: Human alphaherpesvirus 1, Vero 76, read-out: HSV-1 EC50
B. subtilis ATCC 6633 [6] = test: MIC, twofold serial agar dilution; type: cell-based; settings: Bacillus subtilis, ATCC6633, 18 h, 35 °C, read-out: minimal inhibitory concentrations (MIC)
VV = test: microbe, parasite or virus in culture; type: cell-based; settings: Orthopoxvirus vaccinia, Vero 76, read-out: VV EC50
S. epidermidis (MRSE) = test: MIC against hospital strains; settings: Staphylococcus epidermidis
S. aureus NCTC 4163 [7] = test: MIC, twofold serial agar dilution; type: cell-based; settings: Staphylococcus aureus, NCTC4163, 18 h, 35 °C, read-out: minimal inhibitory concentrations (MIC)
VSV = test: microbe, parasite or virus in culture; type: cell-based; settings: Vesicular stomatitis virus, Vero 76, read-out: VSV EC50
M. luteus ATCC 10240 [8] = test: MIC, twofold serial agar dilution; type: cell-based; settings: Micrococcus luteus, ATCC10240, 18 h, 35 °C, read-out: minimal inhibitory concentrations (MIC)
M. luteus ATCC 10240 [9] = test: disc diffusion method; type: cell-based, Micrococcus luteus; settings: Micrococcus luteus, ATCC10240, applied 400 µg per disc, dash = lack of the growth inhibition area, read-out: diameter of growth inhibitory zone (GIZ)
YFV = test: microbe, parasite or virus in culture; type: cell-based; settings: Yellow fever virus, BHK, read-out: YFV EC50
M. luteus ATCC 9341 [10] = test: MIC, twofold serial agar dilution; type: cell-based; settings: Micrococcus luteus, ATCC9341, 18 h, 35 °C, read-out: minimal inhibitory concentrations (MIC)
S. aureus ATCC 29213 [11] = test: disc diffusion method; type: cell-based, Staphylococcus aureus; settings: Staphylococcus aureus, ATCC29213, applied 400 µg per disc, dash = lack of the growth inhibition area, read-out: diameter of growth inhibitory zone (GIZ)
HIV-1 = test: microbe, parasite or virus in culture
S. aureus ATCC 6538 [12] = test: disc diffusion method; type: cell-based, Staphylococcus aureus; settings: Staphylococcus aureus, ATCC6538, applied 400 µg per disc, dash = lack of the growth inhibition area, read-out: diameter of growth inhibitory zone (GIZ)
Sb-1 = test: microbe, parasite or virus in culture; type: cell-based, poliovirus type-1; settings: Enterovirus C, Vero 76, read-out: Sb-1 EC50
CV-B5 = test: microbe, parasite or virus in culture; type: cell-based, coxsackievirus B5; settings: Enterovirus B, CVB5, Vero 76, read-out: CV-B5 EC50
in vitro [13] = settings: African green monkey (Cercopithecus aethiops)
S. aureus ATCC 25923 [14] = test: disc diffusion method; type: cell-based, Staphylococcus aureus; settings: Staphylococcus aureus, ATCC25923, applied 400 µg per disc, dash = lack of the growth inhibition area, read-out: diameter of growth inhibitory zone (GIZ)
M. luteus ATCC 9341 [15] = test: disc diffusion method; type: cell-based, Micrococcus luteus; settings: Micrococcus luteus, ATCC9341, applied 400 µg per disc, dash = lack of the growth inhibition area, read-out: diameter of growth inhibitory zone (GIZ)
B. cereus ATCC 11778 [16] = test: disc diffusion method; type: cell-based, Bacillus cereus; settings: Bacillus cereus, ATCC11778, applied 400 µg per disc, dash = lack of the growth inhibition area, read-out: diameter of growth inhibitory zone (GIZ)
in vitro [17] = settings: cattle (Bos taurus)
in vitro [18] = settings: human
B. cereus ATCC 11778 [19] = test: MIC, twofold serial agar dilution; type: cell-based; settings: Bacillus cereus, ATCC11778, 18 h, 35 °C, read-out: minimal inhibitory concentrations (MIC)
B. subtilis ATCC 6633 [20] = test: disc diffusion method; type: cell-based, Bacillus subtilis; settings: Bacillus subtilis, ATCC6633, applied 400 µg per disc, dash = lack of the growth inhibition area, read-out: diameter of growth inhibitory zone (GIZ)
[21] = test system: HIV-1 EFV^R (K103R + V179D + P225H mutant); test: microbe, parasite or virus in culture; type: cell-based, Human Immunodeficiency Virus type-1; settings: Human immunodeficiency virus 1, MT4, 96 h, read-out: EC50 EFV^R
[22] = test system: HIV-1 AZT^R strain (67N, 70R, 215F, 219Q); test: microbe, parasite or virus in culture; type: cell-based, Human Immunodeficiency Virus type-1; settings: Human immunodeficiency virus 1, MT4, read-out: EC50 AZT^R
[23] = test system: HIV-1 N119 (Y181C mutant); test: microbe, parasite or virus in culture; type: cell-based, Human Immunodeficiency Virus type-1; settings: Human immunodeficiency virus 1, MT4, read-out: EC50 N119
[24] = test system: HIV-1 A17 (K103N + Y181C mutant); test: microbe, parasite or virus in culture; type: cell-based, Human Immunodeficiency Virus type-1; settings: Human immunodeficiency virus 1, MT4, 96 h, read-out: EC50 A17
[25] = test system: HIV-1 MDR strain (74V, 41L, 106A, 215Y); test: microbe, parasite or virus in culture; type: cell-based, Human Immunodeficiency Virus type-1; settings: Human immunodeficiency virus 1, MT4, read-out: EC50 MDR
[26] = hospital S. epidermidis MRSE strain 430/11
[27] = hospital S. epidermidis MRSE strain 431/11
[28] = hospital S. epidermidis MRSE strain 432/11
[29] = hospital S. epidermidis MRSE strain 433/11
[30] = hospital S. epidermidis MRSE strain 434/11
[31] = hospital S. epidermidis MRSE strain 435/11
[32] = hospital S. epidermidis MRSE strain 436/11
[33] = hospital S. epidermidis MRSE strain 437/11
[34] = hospital S. epidermidis MRSE strain 438/11
[35] = hospital S. epidermidis MRSE strain 439/11
[36] = Human immunodeficiency virus 1, MT4, read-out: HIV-1 EC50

## S=C(NCCc1c[nH]c2ccccc12)Nc1ccccc1Br [Compound 15, 1-(2-(1H-Indol-3-yl)ethyl)-3-(2-bromophenyl)thiourea]
BVDV
  EC50: > 48 µM
In vitro [1]
  CC50: 28 µM
Reo-1
  EC50: > 28 µM
RSV
  activity against RSV (in words): moderately active
  EC50: 20 ± 2.5 µM
S. aureus NCTC 4163 [2]
  zone of inhibition at 400 µg/disc: 11 mm
S. aureus ATCC 6538 [3]
  MIC: 50 µg/mL (≈ 134 µM)
S. aureus ATCC 25923 [4]
  MIC: 100 µg/mL (≈ 267 µM)
S. aureus ATCC 29213 [5]
  MIC: 50 µg/mL (≈ 134 µM)
HSV-1
  EC50: > 46 µM
B. subtilis ATCC 6633 [6]
  MIC: 50 µg/mL (≈ 134 µM)
VV
  EC50: > 46 µM
S. epidermidis (MRSE); [26]
  MIC: 400 µg/mL (≈ 1070 µM)
S. epidermidis (MRSE); [27]
  MIC: 50 µg/mL (≈ 134 µM)
S. epidermidis (MRSE); [28]
  MIC: 50 µg/mL (≈ 134 µM)
S. epidermidis (MRSE); [29]
  MIC: 50 µg/mL (≈ 134 µM)
S. epidermidis (MRSE); [30]
  MIC: 50 µg/mL (≈ 134 µM)
S. epidermidis (MRSE); [31]
  MIC: 100 µg/mL (≈ 267 µM)
S. epidermidis (MRSE); [32]
  MIC: 100 µg/mL (≈ 267 µM)
S. epidermidis (MRSE); [33]
  MIC: 100 µg/mL (≈ 267 µM)
S. epidermidis (MRSE); [34]
  MIC: 200 µg/mL (≈ 534 µM)
S. epidermidis (MRSE); [35]
  MIC: 50 µg/mL (≈ 134 µM)
S. aureus NCTC 4163 [7]
  MIC: 50 µg/mL (≈ 134 µM)
VSV
  EC50: > 46 µM
M. luteus ATCC 10240 [8]
  MIC: 50 µg/mL (≈ 134 µM)
M. luteus ATCC 10240 [9]
  zone of inhibition at 400 µg/disc: 14 mm
YFV
  EC50: > 28 µM
M. luteus ATCC 9341 [10]
  MIC: 200 µg/mL (≈ 534 µM)
S. aureus ATCC 29213 [11]
  zone of inhibition at 400 µg/disc: 11 mm
HIV-1; [36]
  EC50: > 46 µM
S. aureus ATCC 6538 [12]
  zone of inhibition at 400 µg/disc: 12 mm
Sb-1
  EC50: > 46 µM
CV-B5
  EC50: > 46 µM
other
  melting point: 150 to 152 °C
In vitro [13]
  CC50: 46 µM
S. aureus ATCC 25923 [14]
  zone of inhibition at 400 µg/disc: 11 mm
M. luteus ATCC 9341 [15]
  zone of inhibition at 400 µg/disc: 13 mm
B. cereus ATCC 11778 [16]
  zone of inhibition at 400 µg/disc: 14 mm
In vitro [17]
  CC50: 48 µM
In vitro [18]
  CC50: 46 µM
B. cereus ATCC 11778 [19]
  MIC: 50 µg/mL (≈ 134 µM)
B. subtilis ATCC 6633 [20]
  zone of inhibition at 400 µg/disc: 15 mm

## C=C(C)CNC(=S)NCCc1c[nH]c2ccccc12 [Compound 19, 1-(2-(1H-Indol-3-yl)ethyl)-3-(2-methylallyl)thiourea]
BVDV
  EC50: ≥ 100 µM
In vitro [1]
  CC50: 35 µM
Reo-1
  EC50: > 35 µM
RSV
  EC50: > 89 µM
S. aureus NCTC 4163 [2]
  zone of inhibition at 400 µg/disc: 12 mm
S. aureus ATCC 6538 [3]
  MIC: 200 µg/mL (≈ 732 µM)
S. aureus ATCC 25923 [4]
  MIC: 400 µg/mL (≈ 1460 µM)
HSV-1
  EC50: > 89 µM
B. subtilis ATCC 6633 [6]
  MIC: 400 µg/mL (≈ 1460 µM)
VV
  EC50: > 89 µM
S. epidermidis (MRSE); [26]
  MIC: 12.5 µg/mL (≈ 45.7 µM)
S. epidermidis (MRSE); [27]
  MIC: 100 µg/mL (≈ 366 µM)
S. epidermidis (MRSE); [28]
  MIC: 12.5 µg/mL (≈ 45.7 µM)
S. epidermidis (MRSE); [29]
  MIC: 50 µg/mL (≈ 183 µM)
S. epidermidis (MRSE); [30]
  MIC: 12.5 µg/mL (≈ 45.7 µM)
S. epidermidis (MRSE); [31]
  MIC: 50 µg/mL (≈ 183 µM)
S. epidermidis (MRSE); [32]
  MIC: 100 µg/mL (≈ 366 µM)
S. epidermidis (MRSE); [33]
  MIC: 200 µg/mL (≈ 732 µM)
S. epidermidis (MRSE); [34]
  MIC: 100 µg/mL (≈ 366 µM)
S. epidermidis (MRSE); [35]
  MIC: 50 µg/mL (≈ 183 µM)
S. aureus NCTC 4163 [7]
  MIC: 400 µg/mL (≈ 1460 µM)
VSV
  EC50: > 89 µM
M. luteus ATCC 10240 [8]
  MIC: 50 µg/mL (≈ 183 µM)
M. luteus ATCC 10240 [9]
  zone of inhibition at 400 µg/disc: 14 mm
YFV
  EC50: > 35 µM
M. luteus ATCC 9341 [10]
  MIC: 200 µg/mL (≈ 732 µM)
HIV-1; [36]
  EC50: > 100 µM
S. aureus ATCC 6538 [12]
  zone of inhibition at 400 µg/disc: 11 mm
Sb-1
  EC50: > 89 µM
CV-B5
  EC50: > 89 µM
other
  melting point: 141 to 143 °C
In vitro [13]
  CC50: 89 µM
S. aureus ATCC 25923 [14]
  zone of inhibition at 400 µg/disc: 12 mm
M. luteus ATCC 9341 [15]
  zone of inhibition at 400 µg/disc: 13 mm
B. cereus ATCC 11778 [16]
  zone of inhibition at 400 µg/disc: 13 mm
In vitro [17]
  CC50: > 100 µM
In vitro [18]
  CC50: > 100 µM
B. cereus ATCC 11778 [19]
  MIC: 200 µg/mL (≈ 732 µM)
B. subtilis ATCC 6633 [20]
  zone of inhibition at 400 µg/disc: 13 mm

## O=C1Nc2ccc(Cl)cc2[C@@](C#CC2CC2)(C(F)(F)F)O1 [Efavirenz]
[21]
  EC50: 7 ± 0.8 µM
[22]
  EC50: 0.001 ± 0.0002 µM
[23]
  EC50: 0.018 ± 0.002 µM
[24]
  EC50: 0.075 ± 0.009 µM
In vitro [18]
  CC50: 40 µM

## Cc1ccnc2c1NC(=O)c1cccnc1N2C1CC1 [Nevirapine]
[21]
  EC50: 100 µM
[25]
  EC50: 5 ± 0.6 µM
[22]
  EC50: 0.078 ± 0.008 µM
[23]
  EC50: 6.3 ± 0.05 µM
HIV-1; Human immunodeficiency virus 1, MT4, read-out: EC50 HIV-1
  EC50: 0.08 ± 0.005 µM
[24]
  EC50: 80 µM
In vitro [18]
  CC50: > 100 µM
